What all share (assay): relative viability (nuclei count vs DMSO), 5 days (fraction); higher = more cells survive
Compound in the experiment “QS11 + AZD7762”: C1CC2=C(C1)C=C(C=C2)OC3=NC(=C4C(=N3)N(C=N4)CC5=CC=C(C=C5)C6=CC=CC=C6)N[C@@H](CC7=CC=CC=C7)CO [QS11] + NC(=O)Nc1cc(-c2cccc(F)c2)sc1C(=O)N[C@H]1CCCNC1 [AZD7762] (partner 0.2 µM)
A digest of the protocol:
(§1)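 Dosing by pin tool came one day after lung cancer cell lines were seeded in 1536-well plates, using either one drug or a fixed anchor-drug dose plus five library-drug doses (not always all listed) in √10 steps. After 5 days, nuclei were counted on 4× images. Relative viability is treated-well nuclei count divided by vehicle-well nuclei count, and values are medians of duplicate plates.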

Compound in the experiment “QS11 + Pemetrexed”: C1CC2=C(C1)C=C(C=C2)OC3=NC(=C4C(=N3)N(C=N4)CC5=CC=C(C=C5)C6=CC=CC=C6)N[C@@H](CC7=CC=CC=C7)CO [QS11] + Nc1nc2[nH]cc(CCc3ccc(C(=O)N[C@@H](CCC(=O)O)C(=O)O)cc3)c2c(=O)[nH]1 [Pemetrexed] (partner 0.2 µM)
A digest of the protocol:
as §1

Compound in the experiment “QS11 + Decitabine”: C1CC2=C(C1)C=C(C=C2)OC3=NC(=C4C(=N3)N(C=N4)CC5=CC=C(C=C5)C6=CC=CC=C6)N[C@@H](CC7=CC=CC=C7)CO [QS11] + Nc1ncn([C@H]2C[C@H](O)[C@@H](CO)O2)c(=O)n1 [Decitabine] (partner 2 µM)
A digest of the protocol: as §1

Compound in experiment [1]: C[As](C)SC[C@H](NC(=O)CC[C@H](N)C(=O)O)C(=O)NCC(=O)O [Darinaparsin] + CC(=O)Nc1cccc(-n2c(=O)n(C3CC3)c(=O)c3c(Nc4ccc(I)cc4F)n(C)c(=O)c(C)c32)c1 [Trametinib] (partner 0.02 µM)
A digest of the protocol:
as §1

Regarding SW 900, the relative viability with QS11 + AZD7762 (first compound 0.08 µM) stood at 0.603; with QS11 + AZD7762 (first compound 0.253 µM) it was 0.549; in the experiment with QS11 + AZD7762 (first compound 0.8 µM) it was 0.611; with QS11 + AZD7762 (first compound 2.53 µM), 0.502; in the experiment with QS11 + AZD7762 (first compound 8 µM), 0.504; with QS11 + Pemetrexed (first compound 0.08 µM), 0.384. The relative viability was found to be 0.456 with QS11 + Pemetrexed (first compound 0.253 µM); 0.465 with QS11 + Pemetrexed (first compound 0.8 µM); 0.503 with QS11 + Pemetrexed (first compound 2.53 µM); 0.514 in the experiment with QS11 + Pemetrexed (first compound 8 µM); 0.37 with QS11 + Decitabine (first compound 0.08 µM); 0.475 with QS11 + Decitabine (first compound 0.253 µM). In addition, the relative viability with QS11 + Decitabine (first compound 0.8 µM) is 0.413; with QS11 + Decitabine (first compound 2.53 µM), 0.491; in the experiment with QS11 + Decitabine (first compound 8 µM), 0.412; in experiment [1] (first compound 0.08 µM), 0.73; in experiment [1] (first compound 2.53 µM), 0.813; in experiment [1] (first compound 8 µM), 0.985.

Take HCC-15: the relative viability with QS11 + AZD7762 (first compound 0.08 µM) was 1.27; with QS11 + AZD7762 (first compound 0.253 µM) it was 1.26; with QS11 + AZD7762 (first compound 0.8 µM), 0.877; with QS11 + AZD7762 (first compound 2.53 µM) it was 1.22; with QS11 + AZD7762 (first compound 8 µM) it was 0.461; with QS11 + Pemetrexed (first compound 0.08 µM) it was 0.213. Besides, the relative viability came out at 0.232 in the experiment with QS11 + Pemetrexed (first compound 0.253 µM); 0.223 with QS11 + Pemetrexed (first compound 0.8 µM); 0.274 with QS11 + Pemetrexed (first compound 2.53 µM); 0.227 with QS11 + Pemetrexed (first compound 8 µM); 0.697 in the experiment with QS11 + Decitabine (first compound 0.08 µM); 0.737 with QS11 + Decitabine (first compound 0.253 µM). The relative viability was determined as 0.573 in the experiment with QS11 + Decitabine (first compound 0.8 µM); 0.586 with QS11 + Decitabine (first compound 2.53 µM); 0.525 with QS11 + Decitabine (first compound 8 µM); 0.409 in experiment [1] (first compound 0.08 µM); 0.321 in experiment [1] (first compound 0.8 µM); 0.27 in experiment [1] (first compound 2.53 µM). Also, in experiment [1] (first compound 8 µM), the relative viability stood at 0.415.

For NCI-H1915, the relative viability in the experiment with QS11 + AZD7762 (first compound 0.08 µM) amounted to 0.693; in the experiment with QS11 + AZD7762 (first compound 0.253 µM), 0.702; with QS11 + AZD7762 (first compound 2.53 µM) it was 0.753; with QS11 + AZD7762 (first compound 8 µM), 0.634; with QS11 + Pemetrexed (first compound 0.08 µM), 0.583; with QS11 + Pemetrexed (first compound 0.253 µM), 0.538. The relative viability was 0.567 with QS11 + Pemetrexed (first compound 2.53 µM); 0.529 with QS11 + Pemetrexed (first compound 8 µM); 0.248 in the experiment with QS11 + Decitabine (first compound 0.08 µM); 0.266 with QS11 + Decitabine (first compound 0.253 µM); 0.267 in the experiment with QS11 + Decitabine (first compound 2.53 µM); 0.287 with QS11 + Decitabine (first compound 8 µM). Further, the relative viability in experiment [1] (first compound 0.08 µM) was 0.336; in experiment [1] (first compound 0.8 µM), 0.301; in experiment [1] (first compound 2.53 µM), 0.288; in experiment [1] (first compound 8 µM), 0.3.

As for NCI-H2347, the relative viability with QS11 + AZD7762 (first compound 0.08 µM) turned out to be 0.698; in the experiment with QS11 + AZD7762 (first compound 0.253 µM), 0.694; with QS11 + AZD7762 (first compound 0.8 µM) it was 0.692; in the experiment with QS11 + AZD7762 (first compound 2.53 µM) it was 0.834; with QS11 + AZD7762 (first compound 8 µM) it was 0.807; in the experiment with QS11 + Pemetrexed (first compound 0.08 µM), 0.455. Also, the relative viability with QS11 + Pemetrexed (first compound 0.253 µM) amounted to 0.426; in the experiment with QS11 + Pemetrexed (first compound 0.8 µM), 0.396; with QS11 + Pemetrexed (first compound 2.53 µM) it was 0.458; with QS11 + Pemetrexed (first compound 8 µM), 0.446; with QS11 + Decitabine (first compound 0.08 µM), 0.587; with QS11 + Decitabine (first compound 0.253 µM), 0.563. Moreover, the relative viability with QS11 + Decitabine (first compound 0.8 µM) turned out to be 0.582; in the experiment with QS11 + Decitabine (first compound 2.53 µM), 0.694; with QS11 + Decitabine (first compound 8 µM) it was 0.659; in experiment [1] (first compound 0.08 µM) it was 0.249; in experiment [1] (first compound 0.8 µM), 0.266; in experiment [1] (first compound 2.53 µM), 0.307. Besides, the relative viability in experiment [1] (first compound 8 µM) amounted to 0.242.

Take EKVX: the relative viability came to 0.693 with QS11 + AZD7762 (first compound 0.08 µM); 0.743 with QS11 + AZD7762 (first compound 0.253 µM); 0.627 with QS11 + AZD7762 (first compound 0.8 µM); 0.649 with QS11 + AZD7762 (first compound 2.53 µM); 0.755 with QS11 + AZD7762 (first compound 8 µM); 0.385 with QS11 + Pemetrexed (first compound 0.08 µM). Moreover, the relative viability in the experiment with QS11 + Pemetrexed (first compound 0.253 µM) was 0.412; with QS11 + Pemetrexed (first compound 0.8 µM), 0.412; with QS11 + Pemetrexed (first compound 2.53 µM) it was 0.356; with QS11 + Pemetrexed (first compound 8 µM), 0.345; with QS11 + Decitabine (first compound 0.08 µM) it was 0.321; with QS11 + Decitabine (first compound 0.253 µM), 0.44. Also, the relative viability with QS11 + Decitabine (first compound 0.8 µM) turned out to be 0.327; with QS11 + Decitabine (first compound 2.53 µM), 0.392; with QS11 + Decitabine (first compound 8 µM), 0.341; in experiment [1] (first compound 0.08 µM) it was 0.339; in experiment [1] (first compound 0.8 µM) it was 0.33; in experiment [1] (first compound 2.53 µM), 0.344. For the same cell line, the relative viability in experiment [1] (first compound 8 µM) stood at 0.333.

On to LC-2-ad, for which the relative viability with QS11 + AZD7762 (first compound 0.08 µM) is 0.726; with QS11 + AZD7762 (first compound 0.253 µM), 0.865; with QS11 + AZD7762 (first compound 0.8 µM), 0.666; with QS11 + AZD7762 (first compound 2.53 µM), 0.926; with QS11 + AZD7762 (first compound 8 µM), 1.03; with QS11 + Pemetrexed (first compound 0.08 µM) it was 0.273. Further, the relative viability with QS11 + Pemetrexed (first compound 0.253 µM) is 0.27; in the experiment with QS11 + Pemetrexed (first compound 0.8 µM), 0.27; with QS11 + Pemetrexed (first compound 2.53 µM), 0.294; in the experiment with QS11 + Pemetrexed (first compound 8 µM), 0.26; in the experiment with QS11 + Decitabine (first compound 0.08 µM), 0.776; in the experiment with QS11 + Decitabine (first compound 0.253 µM), 0.775. Besides, the relative viability in the experiment with QS11 + Decitabine (first compound 0.8 µM) is 0.691; with QS11 + Decitabine (first compound 2.53 µM), 0.722; with QS11 + Decitabine (first compound 8 µM), 0.712; in experiment [1] (first compound 0.08 µM) it was 0.975; in experiment [1] (first compound 0.8 µM) it was 0.903; in experiment [1] (first compound 2.53 µM), 0.815. Moreover, in experiment [1] (first compound 8 µM), the relative viability is 1.08.

For the origin of these results see the supplement of paper PMC10307832.
